Reference: patent US20230250109A1, “MACROCYCLIC ETHER CONTAINING INDOLE DERIVATIVES AS INHIBITORS OF MCL-1” (Janssen Pharmaceutica NV, priority 2020, published 2023)
Read-outs that look alike come from different tables or passages of the source.

Experiments:
[1] = system: MOLP-8 human multiple myeloma cell line; assay: Caspase-Glo 3/7 apoptosis induction assay in MOLP-8 cells; format: cell-based; conditions: 2 hours at 37° C., caspase-3/7 luminescence, averaged over all runs on all batches, read-out: MOLP8 Caspase-Glo AC50
From the text: MCL-1 is a regulator of apoptosis and is highly over-expressed in tumor cells that escape cell death. The assay evaluates the cellular potency of small-molecule compounds targeting regulators of the apoptosis pathway, primarily MCL-1, Bfl-1, Bcl-2, and other proteins of the Bcl-2 family. Protein-protein inhibitors disrupting the interaction of anti-apoptotic regulators with BH3-domain proteins initiate apoptosis.
The Caspase-Glo® 3/7 Assay is a luminescent assay that measures caspase-3 and -7 activities in purified enzyme preparations or cultures of adherent or suspension cells. The assay provides a proluminescent caspase-3/7 substrate, which contains the tetrapeptide sequence DEVD. This substrate is cleaved to release aminoluciferin, a substrate of luciferase used in the production of light. Addition of the single Caspase-Glo® 3/7 Reagent in an “add-mix-measure” format results in cell lysis, followed by caspase cleavage of the substrate and generation of a “glow-type” luminescent signal. This assay uses the MOLP-8 human multiple myeloma cell line, which is sensitive to MCL-1 inhibition.
• Perkin Elmer Envision • Multidrop 384 and small volume dispensing cassettes • Centrifuge • Countess automated cell counter • Countess counting chamber slides • Assay plate: ProxiPlate-384 Plus, White 384-shallow well Microplate • Sealing tape: Topseal A plus • T175 culture flask
Cell cultures were maintained between 0.2 and 2.0×10^6 cells/mL. The cells were harvested by collection in 50 mL conical tubes. The cells were then pelleted at 500 g for 5 mins before removing supernatant and resuspension in fresh pre-warmed culture medium. The cells were counted and diluted as needed.
The assay reagent was prepared by transferring the buffer solution to the substrate vial and mixing. The solution may be stored for up to 1 week at 4° C. with negligible loss of signal.
Compounds were delivered in assay-ready plates (Proxiplate) and stored at −20° C. Assays always include 1 reference compound plate containing reference compounds. The plates were spotted with 40 nL of compounds (0.5% DMSO final in cells; serial dilution; […] highest conc. 1/3 dilution, 10 doses, duplicates). The compounds were used at room temperature and 4 μL of pre-warmed media was added to all wells except column 2 and 23. The negative control was prepared by adding 1% DMSO in media. The positive control was prepared by adding the appropriate positive control compound in final concentration of […] in media. The plate was prepared by adding 4 μL negative control to column 23, 4 μL positive control to column 2 and 4 μL cell suspension to all wells in the plate. The plate with cells was then incubated at 37° C. for 2 hours. The assay signal reagent is the Caspase-Glo solution described above, and 8 μL was added to all wells. The plates were then sealed and measured after 30 minutes.
The activity of a test compound was calculated as percent change in apoptosis induction as follows: […]

[2] = biological target: Myeloid Cell Leukemia 1 (Mcl-1) (Homo sapiens, UniProt Q07820); assay: Terbium labeled Mcl-1 HTRF binding assay (displacement of Cy5-labeled BIM BH3 peptide); conditions: 25 pM Tb-Mcl-1, 8 nM Cy5 Bim peptide, Ki=IC50/(1+[L]/Kd), [L]=8 nM, Kd=10 nM, 60 min at room temperature, read-out: Tb-MCL1 Ki
Description: Terbium labeled Myeloid Cell Leukemia 1 (Mcl-1) homogeneous time-resolved fluorescence (HTRF) binding assay utilizing the BIM BH3 peptide (H2N—(C/Cy5Mal) WIAQELRRIGDEFN-OH) as the binding partner for Mcl-1.
This assay evaluated inhibition of the BH3 domain: Mcl-1 interaction by measuring the displacement of Cy5-labeled BIM BH3 peptide (H2N—(C/Cy5Mal) WIAQELRRIGDEFN-OH) in the HTRF assay format.
The following assay and stock buffers were prepared for use in the assay: (a) Stock buffer: 10 mM Tris-HCl, pH=7.5+150 mM NaCl, filtered, sterilized, and stored at 4° C.; and (b) 1× assay buffer, where the following ingredients were added fresh to stock buffer: 2 mM dithiothreitol (DTT), 0.0025% Tween-20, 0.1 mg/mL bovine serum albumin (BSA). The 1×Tb-Mcl-1+Cy5 Bim peptide solution was prepared by diluting the protein stock solution using the 1×assay buffer (b) to 25 pM Tb-Mcl-1 and 8 nM Cy5 Bim peptide.
Using the Acoustic ECHO, 100 nL of 100×test compound(s) were dispensed into individual wells of a white 384-well Perkin Elmer Proxiplate, for a final compound concentration of 1×and final DMSO concentration of 1%. Inhibitor control and neutral control (NC, 100 nL of 100% DMSO) were stamped into columns 23 and 24 of assay plate, respectively. Into each well of the plate was then dispensed 10 μL of the 1× Tb-Mcl-1+Cy5 Bim peptide solution. The plate was centrifuged with a cover plate at 1000 rpm for 1 minute, then incubated for 60 minutes at room temperature with plates covered. The TR-FRET signal was read on an BMG PHERAStar FSX MicroPlate Reader at room temperature using the HTRF optic module (HTRF: excitation: 337 nm, light source: laser, emission A: 665 nm, emission B: 620 nm, integration start: 60 μs, integration time: 400 μs).
The BMG PHERAStar FSX MicroPlate Reader was used to measure fluorescence intensity at two emission wavelengths—665 nm and 620 nm—and report relative fluorescence units (RFU) for both emissions, as well as a ratio of the emissions (665 nm/620 nm)*10,000. The RFU values were normalized to percent inhibition as follows:
35% inhibition=(((NC−IC)−(compound−IC))/(NC−IC))*100
where IC (inhibitor control, low signal)=mean signal of 1× Tb-MCl-1+Cy5 Bim peptide+ inhibitor control or 100% inhibition of Mcl-1; NC (neutral control, high signal)=mean signal 1× Tb-MCl-1+Cy5 Bim peptide with DMSO only or 0% inhibition An 11-point dose response curve was generated to determine IC50 values (using GenData) based on the following equation:
Y=Bottom+(Top−Bottom)/(1+10^((log IC50−X)*HillSlope))
where Y=% inhibition in the presence of X inhibitor concentration; Top=100% inhibition derived from the IC (mean signal of Mcl-1+ inhibitor control); Bottom=0% inhibition derived from the NC (mean signal of Mcl-1+ DMSO); Hillslope=Hill coefficient; and IC50=concentration of compound with 50% inhibition in relation to top/neutral control (NC).

Myeloid Cell Leukemia 1 (Mcl-1), sequence (Q07820 whole entry): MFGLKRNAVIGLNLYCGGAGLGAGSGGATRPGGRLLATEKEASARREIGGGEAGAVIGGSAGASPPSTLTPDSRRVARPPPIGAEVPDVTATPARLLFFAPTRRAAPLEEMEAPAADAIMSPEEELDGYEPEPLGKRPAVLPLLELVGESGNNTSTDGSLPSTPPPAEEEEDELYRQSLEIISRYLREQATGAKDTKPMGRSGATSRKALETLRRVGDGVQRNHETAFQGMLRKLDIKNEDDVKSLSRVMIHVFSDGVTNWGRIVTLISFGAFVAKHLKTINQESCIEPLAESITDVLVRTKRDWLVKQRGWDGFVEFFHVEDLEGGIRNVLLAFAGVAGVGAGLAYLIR

| Structure (SMILES) | AC50 [1] [nM] | Ki [2] [nM] | melting point [°C] | AC50 ([1]; Homo sapiens, MOLP-8, 2 h) [nM] |
| --- | --- | --- | --- | --- |
| Cc1c2c(nn1C)COCc1cc(n(C)n1)CCc1cc(c3ccccc3c1)OCCCc1c(C(=O)O)n(C)c3c-2c(Cl)ccc13 (single isomer, unassigned) [Compound 1] | 83.3 | 0.047 | – | – |
| Cc1c2c(nn1C)COCc1cc(n(C)n1)CCc1cc(c3ccccc3c1)OCCCc1c(C(=O)O)n(C)c3c-2c(Cl)ccc13 (single isomer, unassigned) [Compound 2] | 954 | 0.444 | – | – |
| Cc1c2c(nn1C)COCc1cc(n(C)n1)CSc1cc(c3ccccc3c1)OCCCc1c(C(=O)O)n(C)c3c-2c(Cl)ccc13 (single isomer, unassigned) [Compound 5] | 83.7 | 0.057 | – | – |
| Cc1c2c(nn1C)COCc1cc(n(C)n1)CSc1cc(c3ccccc3c1)OCCCc1c(C(=O)O)n(C)c3c-2c(Cl)ccc13 (single isomer, unassigned) [Compound 6] | 6640 | 11.7 | – | – |
| CCc1c2c(nn1C)COCc1cc(n(C)n1)CSc1cc(c3ccccc3c1)OCCCc1c(C(=O)O)n(C)c3c-2c(Cl)ccc13 (single isomer, unassigned) [Compound 7] | 83.7 | 0.055 | 269.16 | – |
| CCc1c2c(nn1C)COCc1cc(n(C)n1)CSc1cc(c3ccccc3c1)OCCCc1c(C(=O)O)n(C)c3c-2c(Cl)ccc13 (single isomer, unassigned) [Compound 8] | 5380 | 8.12 | 264.21 | – |
| Cc1c2c(nn1C)C(C)OCc1cc(n(C)n1)CSc1cc(c3ccccc3c1)OCCCc1c(C(=O)O)n(C)c3c-2c(Cl)ccc13 (single isomer, unassigned) [Compound 9] | 246 | 0.241 | – | – |
| Cc1c2c(nn1C)C(C)OCc1cc(n(C)n1)CSc1cc(c3ccccc3c1)OCCCc1c(C(=O)O)n(C)c3c-2c(Cl)ccc13 (single isomer, unassigned) [Compound 10] | 14700 | 19.8 | – | – |
| Cc1c2c(nn1C)C(C)OCc1cc(n(C)n1)CSc1cc(c3ccccc3c1)OCCCc1c(C(=O)O)n(C)c3c-2c(Cl)ccc13 (single isomer, unassigned) [Compound 11] | 18100 | 33.1 | – | – |
| Cc1c2c(nn1C)C(C)OCc1cc(n(C)n1)CSc1cc(c3ccccc3c1)OCCCc1c(C(=O)O)n(C)c3c-2c(Cl)ccc13 (single isomer, unassigned) [Compound 12] | 59.4 | 0.036 | – | – |
| Cc1c2c(nn1C)COCc1cc(n[nH]1)CSc1cc(c3ccccc3c1)OCCCc1c(C(=O)O)n(C)c3c-2c(Cl)ccc13 (single isomer, unassigned) [Compound 13] | 411 | 0.128 | – | – |
| Cc1c2c(nn1C)COCc1cc(n[nH]1)CSc1cc(c3ccccc3c1)OCCCc1c(C(=O)O)n(C)c3c-2c(Cl)ccc13 (single isomer, unassigned) [Compound 14] | 18000 | 21.6 | – | – |
| Cc1c2c(nn1C)COCc1cc(nn1CCN(C)C)CSc1cc(c3ccccc3c1)OCCCc1c(C(=O)O)n(C)c3c-2c(Cl)ccc13 (single isomer, unassigned) [Compound 15] | – | 0.111 | – | 388 |
| Cc1c2c(nn1C)COCc1cc(n(CCN(C)C)n1)CSc1cc(c3ccccc3c1)OCCCc1c(C(=O)O)n(C)c3c-2c(Cl)ccc13 (single isomer, unassigned) [Compound 16] | – | 0.072 | – | 185 |
| COCCOCCn1nc(C)c2c1COCc1cc(n(C)n1)CCc1cc(c3ccc(F)cc3c1)OCCCc1c(C(=O)O)n(C)c3c-2c(Cl)ccc13 (single isomer, unassigned) [Compound 17] | 7.4 | 0.025 | – | – |
| COCCOCCn1nc2c(c1C)-c1c(Cl)ccc3c(c(C(=O)O)n(C)c13)CCCOc1cc(cc3cc(F)ccc13)CCc1cc(nn1C)COC2 (single isomer, unassigned) [Compound 18] | 17.6 | 0.02 | – | – |
| COCCOCCn1nc(C)c2c1COCc1cc(n(C)n1)CCc1cc(c3ccc(F)cc3c1)OCCCc1c(C(=O)O)n(C)c3c-2c(Cl)ccc13 (single isomer, unassigned) [Compound 19] | 626 | 1.34 | – | – |
| COCCOCCn1nc2c(c1C)-c1c(Cl)ccc3c(c(C(=O)O)n(C)c13)CCCOc1cc(cc3cc(F)ccc13)CCc1cc(nn1C)COC2 (single isomer, unassigned) [Compound 20] | 3450 | 4.14 | – | – |
